According to PubChem BioAssay AID248 (DTP/NCI, 2004):
Several values for one entry are separate records, joined by “and”; a condition that tells them apart may be missing. Equal entries are not always repeated. Inconclusive results and toxic doses are left out.

Test system: L1210 leukemia ip in BDF1 mice, survival T/C
Experiment: NCI In Vivo Anticancer Drug Screen. Data for tumor model L1210 Leukemia (intraperitoneal) in B6D2F1 (BDF1) mice
Details: endpoint: mean survival time, higher = longer survival
In short: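 Value reflects the ratio of survival in compound-treated mice to survival in vehicle-treated controls, with both groups carrying the same transplanted tumor.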

[1] = dose: 100.0 mg/kg/injection, schedule: Q01DX009 (ip), vehicle: Klucel (hydroxypropylcellulose) (HPC)
[2] = dose: 100.0 mg/kg/injection, schedule: Q04DX003 (ip), vehicle: Klucel (hydroxypropylcellulose) (HPC)
[3] = dose: 200.0 mg/kg/injection, schedule: Q01DX009 (ip), vehicle: Klucel (hydroxypropylcellulose) (HPC)
[4] = dose: 200.0 mg/kg/injection, schedule: Q04DX003 (ip), vehicle: Klucel (hydroxypropylcellulose) (HPC)
[5] = dose: 400.0 mg/kg/injection, schedule: Q01DX009 (ip), vehicle: Klucel (hydroxypropylcellulose) (HPC)
[6] = dose: 400.0 mg/kg/injection, schedule: Q04DX003 (ip), vehicle: Klucel (hydroxypropylcellulose) (HPC)
[7] = dose: 60.0 mg/kg/injection, schedule: Q01DX Z (ip), vehicle: carboxymethylcellulose (CMC)
[8] = dose: 100.0 mg/kg/injection, schedule: Q01DX009 (ip), vehicle: saline with Tween-80
[9] = dose: 200.0 mg/kg/injection, schedule: Q01DX009 (ip), vehicle: saline with Tween-80
[10] = dose: 100.0 mg/kg/injection, schedule: Q01DX001 (ip), vehicle: carboxymethylcellulose (CMC)
[11] = dose: 200.0 mg/kg/injection, schedule: Q01DX001 (ip), vehicle: carboxymethylcellulose (CMC)
[12] = dose: 400.0 mg/kg/injection, schedule: Q01DX001 (ip), vehicle: carboxymethylcellulose (CMC)

Oc1ccc(Br)cc1-c1nc2cc(Cl)c(Cl)cc2nc1-c1cc(Br)ccc1O
T/C [1]: 94 % of control
T/C [2]: 107 % of control
T/C [3]: 94 % of control
T/C [4]: 101 % of control
T/C [5]: 96 % of control
T/C [6]: 95 % of control

CC1=CC(C)(C)Nc2ccc(Nc3ccccc3)cc21
T/C (dose: 75.0 mg/kg/injection, schedule: Q01DX001 (ip), vehicle: saline): 101 % of control
T/C (dose: 150.0 mg/kg/injection, schedule: Q01DX001 (ip), vehicle: saline): 96 % of control

CSc1ccc(NC(=O)Nc2cccc(F)c2)cc1
T/C (dose: 100.0 mg/kg/injection, schedule: Q01DX009 (ip), vehicle: other): 108 % of control
T/C (dose: 200.0 mg/kg/injection, schedule: Q01DX009 (ip), vehicle: other): 96 % of control

COc1ccc(F)cc1CC(N)=O
T/C (dose: 100.0 mg/kg/injection, schedule: Q04DX002 (ip), vehicle: Klucel (hydroxypropylcellulose) (HPC)): 101 % of control
T/C (dose: 200.0 mg/kg/injection, schedule: Q04DX002 (ip), vehicle: Klucel (hydroxypropylcellulose) (HPC)): 97 % of control
T/C (dose: 400.0 mg/kg/injection, schedule: Q04DX002 (ip), vehicle: Klucel (hydroxypropylcellulose) (HPC)): 104 % of control

CCCCCCCCC/C(=N\Nc1ccc([N+](=O)[O-])cc1[N+](=O)[O-])c1ccccc1
T/C (dose: 100.0 mg/kg/injection, schedule: Q04DX003 (ip), vehicle: saline sonified): 108 % of control
T/C (dose: 200.0 mg/kg/injection, schedule: Q04DX003 (ip), vehicle: saline sonified): 98 % of control
T/C (dose: 400.0 mg/kg/injection, schedule: Q04DX003 (ip), vehicle: saline sonified): 108 % of control

O=C(/C=C/C(=O)c1ccc(Cl)cc1)c1ccc(Cl)cc1
T/C (dose: 100.0 mg/kg/injection, schedule: Q01DX009 (ip), vehicle: gum acacia): 95 % of control
T/C (dose: 100.0 mg/kg/injection, schedule: Q04DX003 (ip), vehicle: gum acacia): 97 % of control
T/C (dose: 200.0 mg/kg/injection, schedule: Q01DX009 (ip), vehicle: gum acacia): 95 % of control
T/C (dose: 200.0 mg/kg/injection, schedule: Q04DX003 (ip), vehicle: gum acacia): 95 % of control
T/C (dose: 400.0 mg/kg/injection, schedule: Q01DX009 (ip), vehicle: gum acacia): 101 % of control
T/C (dose: 400.0 mg/kg/injection, schedule: Q04DX003 (ip), vehicle: gum acacia): 95 % of control

Cc1c(N=O)c(=O)n(-c2ccccc2)n1C
T/C [1]: 94 % of control
T/C [2]: 95 % of control
T/C [3]: 97 % of control
T/C [4]: 95 % of control
T/C [5]: 110 % of control
T/C [6]: 98 % of control

CCOC(=O)C1=C2c3ccc4ccccc4c3CCC2(C)C(=O)C1 (stereo not drawn)
T/C (dose: 75.0 mg/kg/injection, schedule: Q01DX001 (sc), vehicle: steriod suspending solution): 98 % of control
T/C (dose: 75.0 mg/kg/injection, schedule: Q01DX009 (sc), vehicle: steriod suspending solution): 106 % of control
T/C (dose: 150.0 mg/kg/injection, schedule: Q01DX001 (sc), vehicle: steriod suspending solution): 103 % of control
T/C (dose: 150.0 mg/kg/injection, schedule: Q01DX009 (sc), vehicle: steriod suspending solution): 101 % of control
T/C (dose: 300.0 mg/kg/injection, schedule: Q01DX001 (sc), vehicle: steriod suspending solution): 93 % of control
T/C (dose: 300.0 mg/kg/injection, schedule: Q01DX009 (sc), vehicle: steriod suspending solution): 105 % of control

Cc1ccc(C(=O)CN(Cc2ccccc2)Cc2ccccc2)cc1
T/C [1]: 103 % of control
T/C [2]: 98 % of control
T/C [3]: 97 % of control
T/C [4]: 92 % of control
T/C [5]: 92 % of control
T/C [6]: 91 % of control

NC(N)=N/N=C(\CBr)c1ccc([N+](=O)[O-])cc1
T/C (dose: 15.0 mg/kg/injection, schedule: Q01DX Z (ip), vehicle: carboxymethylcellulose (CMC)): 97 % of control
T/C (dose: 30.0 mg/kg/injection, schedule: Q01DX Z (ip), vehicle: carboxymethylcellulose (CMC)): 92 % of control
T/C (dose: 30.0 mg/kg/injection, schedule: Q01DX Z (oral), vehicle: carboxymethylcellulose (CMC)): 100 % of control
T/C [7]: 98 % of control and 91 % of control
T/C (dose: 60.0 mg/kg/injection, schedule: Q01DX Z (oral), vehicle: carboxymethylcellulose (CMC)): 103 % of control
T/C (dose: 120.0 mg/kg/injection, schedule: Q01DX Z (ip), vehicle: carboxymethylcellulose (CMC)): 92 % of control
T/C (dose: 120.0 mg/kg/injection, schedule: Q01DX Z (oral), vehicle: carboxymethylcellulose (CMC)): 102 % of control
T/C (dose: 240.0 mg/kg/injection, schedule: Q01DX Z (oral), vehicle: carboxymethylcellulose (CMC)): 92 % of control

CC[P+](C)(CC)c1ccccc1
T/C (dose: 15.0 mg/kg/injection, schedule: Q01DX001 (ip), vehicle: saline): 98 % of control
T/C (dose: 30.0 mg/kg/injection, schedule: Q01DX001 (ip), vehicle: saline): 101 % of control

CN(N=O)C(=O)Nc1ccc(C(=O)O)cc1
T/C (dose: 12.0 mg/kg/injection, schedule: Q01DX Z (ip), vehicle: carboxymethylcellulose (CMC)): 183 % of control
T/C (dose: 17.6 mg/kg/injection, schedule: Q01DX Z (ip), vehicle: carboxymethylcellulose (CMC)): 190 % of control
T/C (dose: 26.4 mg/kg/injection, schedule: Q01DX Z (ip), vehicle: carboxymethylcellulose (CMC)): 209 % of control
T/C (dose: 40.0 mg/kg/injection, schedule: Q01DX Z (ip), vehicle: carboxymethylcellulose (CMC)): 188 % of control and 218 % of control
T/C [7]: 118 % of control and 87 % of control
T/C (dose: 80.0 mg/kg/injection, schedule: Q01DX Z (ip), vehicle: carboxymethylcellulose (CMC)): 98 % of control

CCCCCCCC(C(=O)O)C(C)C (stereo not drawn)
T/C (dose: 100.0 mg/kg/injection, schedule: Q01DX001 (ip), vehicle: saline with Tween-80): 94 % of control
T/C (dose: 200.0 mg/kg/injection, schedule: Q01DX001 (ip), vehicle: saline with Tween-80): 106 % of control
T/C (dose: 400.0 mg/kg/injection, schedule: Q01DX001 (ip), vehicle: saline with Tween-80): 105 % of control

CC(=O)Nc1ccccc1C(=O)O
T/C [8]: 100 % of control
T/C [9]: 97 % of control
T/C (dose: 400.0 mg/kg/injection, schedule: Q01DX009 (ip), vehicle: saline with Tween-80): 100 % of control

CCOC(=O)N1CCN(C(=O)OCC)CC1
T/C (dose: 50.0 mg/kg/injection, schedule: Q01DX009 (ip), vehicle: saline with Tween-80): 95 % of control
T/C [8]: 95 % of control
T/C [9]: 95 % of control

O=P1(NCCCl)OCCC(OO)N1CCCl (stereo not drawn)
T/C (dose: 15.0 mg/kg/injection, schedule: Q01DX001 (ip), vehicle: Klucel (hydroxypropylcellulose) (HPC)): 155 % of control
T/C (dose: 23.0 mg/kg/injection, schedule: Q01DX001 (ip), vehicle: Klucel (hydroxypropylcellulose) (HPC)): 158 % of control
T/C (dose: 34.0 mg/kg/injection, schedule: Q01DX001 (ip), vehicle: Klucel (hydroxypropylcellulose) (HPC)): 175 % of control
T/C (dose: 50.0 mg/kg/injection, schedule: Q01DX001 (ip), vehicle: Klucel (hydroxypropylcellulose) (HPC)): 188 % of control and 196 % of control
T/C (dose: 75.0 mg/kg/injection, schedule: Q01DX001 (ip), vehicle: Klucel (hydroxypropylcellulose) (HPC)): 276 % of control
T/C (dose: 100.0 mg/kg/injection, schedule: Q01DX001 (ip), vehicle: Klucel (hydroxypropylcellulose) (HPC)): 182 % of control
T/C (dose: 200.0 mg/kg/injection, schedule: Q01DX001 (ip), vehicle: Klucel (hydroxypropylcellulose) (HPC)): 196 % of control
T/C (dose: 400.0 mg/kg/injection, schedule: Q01DX001 (ip), vehicle: Klucel (hydroxypropylcellulose) (HPC)): 95 % of control

[NH-]CC([NH-])=O.[NH-]CC([NH-])=O.[Ni]
T/C (dose: 3.12 mg/kg/injection, schedule: Q01DX009 (ip), vehicle: water): 96 % of control
T/C (dose: 6.25 mg/kg/injection, schedule: Q01DX009 (ip), vehicle: water): 100 % of control
T/C (dose: 12.5 mg/kg/injection, schedule: Q01DX009 (ip), vehicle: water): 103 % of control

Cc1ccc(C(=O)C(O)c2ccc(C)cc2)cc1 (stereo not drawn)
T/C [1]: 98 % of control
T/C [3]: 101 % of control
T/C [5]: 98 % of control

O=C(OCC(OC(=O)c1ccccc1)C(OC(=O)c1ccccc1)C(OC(=O)c1ccccc1)C(SCc1ccccc1)SCc1ccccc1)c1ccccc1 (stereo not drawn)
T/C [10]: 101 % of control
T/C [11]: 97 % of control
T/C [12]: 95 % of control

O=c1[nH][nH]c(=O)c2c1nc(SCc1ccccc1Br)n2Cc1ccccc1
T/C [10]: 95 % of control
T/C [11]: 97 % of control
T/C [12]: 97 % of control

CN1CCCC(OC(=O)c2cc3ccccc3s2)C1 (stereo not drawn)
T/C [10]: 101 % of control
T/C [11]: 106 % of control
T/C [12]: 98 % of control
